The structures appear in SMILES notation. “And” between values parts separate entries of the source, which are not always exact repeats. Equal values may be shown once. “Also recorded” adds a separate entry of the source. Where a name gives a salt, the structure may show the parent alone. Read-outs that look alike come from different tables or passages of the source.

Series [1] deals with GIST (gastrointestinal stromal tumors). Particulars: for Side effects: imatinib mesylate 200 mg/day.
Series [2] concerns non-small cell lung carcinoma. Nature of the series: Activated autologous lymphocyte therapy combined with gefitinib or conventional chemotherapy, 15 cases at Seta Clinic. The series is classed as in vivo, human. The procedure: Next, studies were conducted for comparing a combination therapy with a conventional chemotherapy other than gefitinib and the method of the present invention.
The response ratio was 46.7%. […] The effective ratio including this was 53.3%. The highest number of administrations was 35, and 10.4 times of treatments on average were conducted.

Series [3] concerns non-small cell lung carcinoma.
For series [4] the following is noted: gefitinib alone, 104 cases, Phase 2 study; cited from earlier work.
Series [5] deals with lung carcinoma (adenocarcinoma). Briefly: Single case: CD3-LAK plus IRESSA (gefitinib), person. The note with it: for Response at examination: gefitinib 250 mg/day + CD3-LAK.
Setting [6] is: 7 chemotherapy / 8 gefitinib cases.
[7] abbreviates: 7 conventional chemotherapy cases / 8 gefitinib cases, with activated autologous lymphocyte therapy.
The mark [8] stands for this setting: of 18 cases, gefitinib + CD3-LAK.
Setting [9] is: of 18 cases, gefitinib + activated autologous lymphocyte therapy.

On to `Cc1ccc(NC(=O)c2ccc(CN3CCN(C)CC3)cc2)cc1Nc1nccc(-c2cccnc2)n1` [imatinib mesylate], for which, in series [1] (Patient 2), the “Duration of partial response since the start of the combination therapy” value is reported as 21 months; the “Increase in liver enzyme levels, GOT” value is given as 58 U/ml; the “Increase in liver enzyme levels, GPT” value amounted to 43 U/ml; the Side effects result is “itching with eczema of the face and limbs; also recorded: stomach discomfort; also recorded: diarrhea”. In addition, the CA12-5 level in series [1] (Patient 2, three months after starting the therapy, 151 U/ml at start) turned out to be 26 U/ml. Moreover, the “Time without tumor progression since start of combination therapy” value in series [1] (Patient 3) stood at 25 months. In series [1] (Patient 3, combination therapy), the Side effects result is on record as “diarrhea”. The “Side effects at the time of administration” value in series [1] (Patient 3, imatinib mesylate 100 to 300 mg per day oral) is “side effects on their digestive organs”. Further, in series [1] (Patient 3, one month after the MRI (one year and two months)), the Change of foci entry is listed as “decreased slightly”. In addition, the “Interpretation of PET” value in series [1] (Patient 3, one year and five months after starting the therapy) is given as “no extraordinary accumulation”. In addition, in series [1] (Patient 3, one year and one month after starting the combination therapy, two foci), the “Size of foci in MRI” value is 1.1 cm and 0.6 cm. Besides, the Tumor progression entry in series [1] (Patient 3, since the combination therapy was started) is reported as “had not progressed”.
For `COc1cc2ncnc(Nc3ccc(F)c(Cl)c3)c2cc1OCCCN1CCOCC1` [gefitinib], in series [2] (setting [6]), the “Evaluation: Effective (percent)” value is on record as “(62.5%)” and the “Evaluation: No effect (percent)” value is “(37.5%)”. In series [2] (setting [7]), the “The number of cases, Complete response” value came out at 0 cases; the “The number of cases, Long no change” value amounted to 0 cases; the “The number of cases, No change” value was 3 cases; the “The number of cases, Partial response” value is listed as 5 cases. Moreover, the “The number of cases, Progressive disease” value in series [2] (setting [7]) was found to be 0 cases. In addition, the “Evaluation: Effective (number of cases)” value in series [2] (complete + partial response + long no change, 7 chemotherapy / 8 gefitinib cases) is on record as “Effective 5 cases”. In series [2] (gefitinib group (cases 8-15)), the Cases still alive is given as 7 cases and the “Longest period of survival confirmed” value amounted to 743 days. Also, the “Outcome at the end” value in series [2] (individual cases 1-15, at end of trace period) is listed as “Alive”. Moreover, the “Evaluation: No effect (number of cases)” value in series [2] (no change + progressive disease, 7 chemotherapy / 8 gefitinib cases) was 3 cases. Also, the “Evaluation: No effect (percent)” value in series [3] (18 cases) is listed as “(38.9%)”. Further, in series [3] (18 cases, gefitinib + CD3-LAK), the “New side effect caused by the combined use of the activated autologous lymphocytes” value was “no new side effect”; the “Side effects: diarrhea, percent” value came out at 33%; the “Side effects: nausea, percent” value is given as 17%; the “Side effects: skin symptoms (eruption and dry skin), percent” value is given as 89%. Besides, in series [3] (individual cases 1-18, at end of trace period, gefitinib 250 mg/day + CD3-LAK), the “Outcome at the end” value is “Alive (17×) and Dead”. Moreover, the “Evaluation: Effective (number of cases)” value in series [3] (of 18 cases, complete + partial response) was “Effective 11 cases”. Moreover, in series [3] (setting [8]), the “Side effects: diarrhea, cases” value is 6 cases; the “Side effects: nausea, cases” value came out at 3 cases; the “Side effects: skin symptoms (eruption and dry skin), cases” value is 16 cases. Further, in series [3] (setting [9]), the “The number of cases, No change” value is given as 6 cases; the “The number of cases, Partial response” value was determined as 11 cases; the “The number of cases, Progressive disease” value amounted to 1 cases. Also, in series [3] (of 18 cases, no change + progressive disease), the “Evaluation: No effect (number of cases)” value is “No effect 7 cases”. Moreover, the Response ratio in series [4] is on record as 18%. The “Lesioned site in CT image” value in series [5] (CT at examination on May 9 versus start of combination therapy (FIGS. 2 and 3)) is listed as “almost disappeared”. Besides, the Response at examination result in series [5] (examination on Feb. 13, 2003, therapy started Oct. 2002) is “considerable response”. The Response at examination entry in series [5] (examination on May 9 (2003)) is given as “remarkable response”.

Values taken from patent publication US20050271630A1, “Method for treating cancer” (MEDINET Co., Ltd., priority 2004, published 2005).
